Experimental data: ChEMBL document CHEMBL5223155, “Design, synthesis, and evaluation of pyrido.[3,4-b]pyrazin-2(1H)-one derivatives as potent FLT3 inhibitors” (Bioorg Med Chem, 2023)
pIC50: −log10 of the molar value. Each block holds one compound with its values, some of them ahead of it. Active and inactive are the calls of the source. The rule behind the calls is not given here.

Columns and labels:
[1] = biological target: Receptor-type tyrosine-protein kinase FLT3 (Homo sapiens, UniProt P36888, D835Y)
Description: Inhibition of human FLT3 D835Y mutant using TK peptide as substrate incubated for 1 hr in presence of ATP by HTRF assay

[2] = biological target: T1, Receptor-type tyrosine-protein kinase FLT3 (Homo sapiens, UniProt P36888)
T1 sequence (P36888 whole entry): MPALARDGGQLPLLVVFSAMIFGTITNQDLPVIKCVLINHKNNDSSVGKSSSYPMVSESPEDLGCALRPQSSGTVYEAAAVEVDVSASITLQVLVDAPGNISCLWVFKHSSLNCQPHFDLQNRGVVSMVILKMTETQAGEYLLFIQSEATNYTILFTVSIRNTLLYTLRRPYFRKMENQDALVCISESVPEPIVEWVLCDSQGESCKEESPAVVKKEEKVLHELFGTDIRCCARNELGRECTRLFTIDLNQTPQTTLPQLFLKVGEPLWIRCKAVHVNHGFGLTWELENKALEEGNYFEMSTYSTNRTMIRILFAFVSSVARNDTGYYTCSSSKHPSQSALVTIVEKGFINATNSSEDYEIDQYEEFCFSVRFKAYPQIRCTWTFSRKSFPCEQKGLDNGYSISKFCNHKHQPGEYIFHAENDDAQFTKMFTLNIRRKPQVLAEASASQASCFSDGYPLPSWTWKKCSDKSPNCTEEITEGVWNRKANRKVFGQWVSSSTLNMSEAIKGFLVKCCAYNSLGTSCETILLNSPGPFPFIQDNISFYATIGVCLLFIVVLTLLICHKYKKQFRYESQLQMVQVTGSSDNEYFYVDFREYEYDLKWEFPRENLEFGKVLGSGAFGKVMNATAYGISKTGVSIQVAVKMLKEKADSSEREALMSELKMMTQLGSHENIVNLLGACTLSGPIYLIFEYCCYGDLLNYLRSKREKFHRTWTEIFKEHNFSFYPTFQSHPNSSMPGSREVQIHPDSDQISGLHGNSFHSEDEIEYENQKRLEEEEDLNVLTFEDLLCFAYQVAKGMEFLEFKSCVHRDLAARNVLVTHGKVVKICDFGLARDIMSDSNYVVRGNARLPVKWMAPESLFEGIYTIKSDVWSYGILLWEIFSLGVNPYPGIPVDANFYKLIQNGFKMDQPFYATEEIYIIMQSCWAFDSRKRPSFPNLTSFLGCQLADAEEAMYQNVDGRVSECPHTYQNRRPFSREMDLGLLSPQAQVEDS
Description: Inhibition of human wild type FLT3 using TK peptide as substrate incubated for 1 hr in presence of ATP by HTRF assay

MOLM-13 = test: Antiproliferative activity against human MOLM-13 cells assessed as inhibition of cell growth incubated for 72 hrs by MTS assay; assay type: functional, cell-based; conditions: MOLM-13, 72 h
MV4-11 = test: cells; conditions: Homo sapiens, MV4-11, 72 h
Description: Antiproliferative activity against human MV4-11 cells assessed as inhibition of cell growth incubated for 72 hrs by MTS assay

BaF3 [3] = test: cells; conditions: Mus musculus, BaF3, 72 h
Description: Antiproliferative activity against mouse BaF3 cells harboring FLT3-D835F mutant assessed as inhibition of cell growth incubated for 72 hrs by MTS assay

BaF3 [4] = test: cells; conditions: Mus musculus, BaF3, 72 h; remark: listed apart in the source
Description: Antiproliferative activity against mouse BaF3 cells harboring FLT3-D835V mutant assessed as inhibition of cell growth incubated for 72 hrs by MTS assay

BaF3 [5] = test: cells; conditions: Mus musculus, BaF3, 72 h; remark: listed apart in the source
Description: Antiproliferative activity against mouse BaF3 cells harboring FLT3-F691L mutant assessed as inhibition of cell growth incubated for 72 hrs by MTS assay

BaF3 [6] = test: cells; conditions: Mus musculus, BaF3, 72 h; remark: listed apart in the source
Description: Antiproliferative activity against mouse BaF3 cells harboring FLT3-ITD/D835Y mutant assessed as inhibition of cell growth incubated for 72 hrs by MTS assay

BaF3 [7] = test: cells; conditions: Mus musculus, BaF3, 72 h; remark: listed apart in the source
Description: Antiproliferative activity against mouse BaF3 cells harboring FLT3-ITD mutant assessed as inhibition of cell growth incubated for 72 hrs by MTS assay

[8] = biological target: Receptor-type tyrosine-protein kinase FLT3 (Homo sapiens) (UniProt P36888); test: Inhibition of FLT3 in human MV4-11 cells assessed as reduction in STAT5 phosphorylation at 100 nM by Western blotting analysis; assay type: cell-based
MOLT-4 = test: Antiproliferative activity against human MOLT-4 cells assessed as inhibition of cell growth incubated for 72 hrs by MTS assay; assay type: functional, cell-based; conditions: MOLT-4, 72 h
[9] = biological target: Receptor-type tyrosine-protein kinase FLT3 (Homo sapiens) (UniProt P36888); test: Inhibition of FLT3 in human MV4-11 cells assessed as reduction in FLT3 autophosphorylation at Tyr589/591 at 10 to 1000 nM by Western blotting analysis; assay type: cell-based; conditions: dose 10-1000 nM
JeKo-1 = test: Antiproliferative activity against human JeKo-1 cells assessed as inhibition of cell growth incubated for 72 hrs by MTS assay; assay type: functional, cell-based; conditions: JeKo-1, 72 h
[10] = biological target: Receptor-type tyrosine-protein kinase FLT3 (Homo sapiens) (UniProt P36888); test: Inhibition of FLT3 in human MV4-11 cells assessed as reduction in AKT phosphorylation by Western blotting analysis; assay type: cell-based; conditions: dose 10-1000 nM
RS4-11 = test: Antiproliferative activity against human RS4-11 cells assessed as inhibition of cell growth incubated for 72 hrs by MTS assay; assay type: functional, cell-based; conditions: RS4-11, 72 h
HCC1954 = test: Antiproliferative activity against human HCC1954 cells assessed as inhibition of cell growth incubated for 72 hrs by MTS assay; assay type: functional, cell-based; conditions: HCC1954, 72 h
OCI-AML-3 = test: Antiproliferative activity against human OCI-AML-3 cells assessed as inhibition of cell growth incubated for 72 hrs by MTS assay; assay type: functional, cell-based; conditions: OCI-AML-3, 72 h
[11] = Antiproliferative activity against human PBMCs assessed as inhibition of cell growth incubated for 72 hrs by MTS assay; assay type: toxicity, cell-based, PBMC
Rec1 = test: Antiproliferative activity against human REC1 cells assessed as inhibition of cell growth incubated for 72 hrs by MTS assay; assay type: functional, cell-based; conditions: Rec1, 72 h
KG-1 = test: Antiproliferative activity against human KG-1 cells assessed as inhibition of cell growth incubated for 72 hrs by MTS assay; assay type: functional, cell-based; conditions: KG-1, 72 h
[12] = biological target: Receptor-type tyrosine-protein kinase FLT3 (Homo sapiens) (UniProt P36888); test: Inhibition of FLT3 in human MV4-11 cells assessed as reduction in ERK phosphorylation by Western blotting analysis; assay type: cell-based; conditions: dose 10-1000 nM
Z-138 = test: Antiproliferative activity against human Z138 cells assessed as inhibition of cell growth incubated for 72 hrs by MTS assay; assay type: functional, cell-based; conditions: Z-138, 72 h
HL-60 = test: Antiproliferative activity against human HL-60 cells assessed as inhibition of cell growth incubated for 72 hrs by MTS assay; assay type: functional, cell-based; conditions: HL-60, 72 h
[13] = biological target: Receptor-type tyrosine-protein kinase FLT3 (Homo sapiens) (UniProt P36888); test: Inhibition of FLT3 in human MV4-11 cells assessed as reduction in STAT5 phosphorylation by Western blotting analysis; assay type: cell-based; conditions: dose 10-1000 nM
MM1.S = test: Antiproliferative activity against human MM1.S cells assessed as inhibition of cell growth incubated for 72 hrs by MTS assay; assay type: functional, cell-based
[14] = Metabolic stability in ICR/CD mouse liver microsomes assessed as compound remaining at 100 uM preincubated with NADPH for 5 mins followed by compound addition and measured upto 90 mins by LC-MS/MS method; assay type: ADME, Microsome; conditions: time < 95 min, read-out: Stability
[15] = biological target: Receptor-type tyrosine-protein kinase FLT3 (Homo sapiens) (UniProt P36888); test: Inhibition of FLT3 in human MV4-11 cells assessed as reduction in ERK phosphorylation at 100 nM by Western blotting analysis; assay type: cell-based
[16] = Antiproliferative activity against human MINO cells assessed as inhibition of cell growth incubated for 72 hrs by MTS assay; assay type: functional, cell-based
WI-38 = test: Antiproliferative activity against human WI-38 cells assessed as inhibition of cell growth incubated for 72 hrs by MTS assay; assay type: functional, cell-based; conditions: WI-38, 72 h

SMILES: Cc1cc(Nc2cc3c(cn2)ncc(=O)n3-c2ccc(N)cc2)ncc1N1CCN(C)CC1
pIC50 [1]: 7.39 | pIC50 (MOLM-13): 6.60 | pIC50 [2]: 7.30 | pIC50 (MV4-11): 7.52

SMILES: CCN1CCN(c2cnc(Nc3cc4c(cn3)ncc(=O)n4-c3ccc(N)cc3)cc2C)CC1
pIC50 [1]: 7.29 | pIC50 (MOLM-13): 6.64 | pIC50 [2]: 6.99 | pIC50 (MV4-11): 7.51

SMILES: Cc1cc(Nc2cc3c(cn2)ncc(=O)n3-c2ccc(N)cc2)ncc1N1CCC(N)CC1
pIC50 [1]: 7.38 | pIC50 (MOLM-13): 6.19 | pIC50 [2]: 7.14 | pIC50 (MV4-11): 7.28

SMILES: Cc1cc(Nc2cc3c(cn2)ncc(=O)n3-c2ccc(N)cc2)ncc1N1C[C@@H](C)N[C@@H](C)C1
pIC50 (BaF3 [3]): 6.16 | pIC50 [1]: 7.48 | pIC50 (BaF3 [4]): 7.15 | pIC50 (BaF3 [5]): 6.59 | pIC50 (MOLM-13): 6.72 | pIC50 [2]: 7.07 | pIC50 (BaF3 [6]): 6.77 | pIC50 (MV4-11): 7.62 | pIC50 (BaF3 [7]): 6.17

SMILES: Cc1cc(Nc2cc3c(cn2)ncc(=O)n3-c2ccc(N)cc2)ncc1N1CCNCC1
pIC50 (BaF3 [3]): 5.51 | pIC50 [1]: 7.47 | pIC50 (BaF3 [4]): 6.79 | pIC50 (BaF3 [5]): 6.06 | pIC50 (MOLM-13): 6.36 | pIC50 [2]: 6.99 | pIC50 (BaF3 [6]): 6.20 | pIC50 (MV4-11): 7.59 | pIC50 (BaF3 [7]): 5.50

SMILES: Cc1cc(Nc2cc3c(cn2)ncc(=O)n3-c2ccc(N)cc2)ncc1N1CCN(C(C)C)CC1
pIC50 (BaF3 [3]): 6.88 | inhibition [8]: 100% | pIC50 (MOLT-4): 5.36 | inhibition [9]: Active | pIC50 (JeKo-1): 5.82 | pIC50 [1]: 7.52 | inhibition [10]: Dose-Dependent Effect | pIC50 (BaF3 [4]): 8.10 | pIC50 (RS4-11): 5.85 | pIC50 (HCC1954): 4.94 | pIC50 (OCI-AML-3): 5.19 | IC50 at 72 h [11]: 3270 nM | pIC50 (Rec1): 5.41 | pIC50 (BaF3 [5]): 7.40 | pIC50 (KG-1): 5.61 | pIC50 (MOLM-13): 6.88 | inhibition [12]: Dose-Dependent Effect | pIC50 (Z-138): 5.84 | pIC50 [2]: 7.21 | pIC50 (HL-60): 5.19 | pIC50 (BaF3 [6]): 7.59 | pIC50 (MV4-11): 7.82 | inhibition [13]: Dose-Dependent Effect | pIC50 (MM1.S): 5.80 | remaining at 1.5 h, 100 µM [14]: > 80% | pIC50 (BaF3 [7]): 6.87 | inhibition [15]: 100% | pIC50 [16]: 5.96 | pIC50 (WI-38): 4.78

More lines, now with the values ahead:

pIC50 [1]: 6.16 | pIC50 [2]: 6.07
SMILES: CN1CCN(c2ccc(Nc3cc4c(cn3)ncc(=O)n4-c3ccc(NS(C)(=O)=O)cc3)nc2)CC1

pIC50 [1]: 6.46 | pIC50 [2]: 6.36
SMILES: Cc1cc(Nc2cc3c(cn2)ncc(=O)n3-c2ccc(N)cc2)ncc1NC1CCN(C)CC1

pIC50 [1]: 5.61 | pIC50 [2]: 5.57
SMILES: CC(=O)Nc1ccc(-n2c(=O)cnc3cnc(Nc4ccc(N5CCN(C)CC5)cc4)cc32)cc1

pIC50 [1]: 5.55 | pIC50 [2]: 5.66
SMILES: CN1CCN(c2ccc(Nc3cc4c(cn3)ncc(=O)n4-c3ccc(N)cc3)cc2)CC1

pIC50 [1]: 4.93 | pIC50 [2]: < 8.00
SMILES: Cc1cc(Nc2cc3c(cn2)ncc(=O)n3-c2ccc(N)cc2)ncc1N1CCOCC1

pIC50 [1]: 6.91 | pIC50 [2]: 6.78
SMILES: CC(=O)N1CCN(c2cnc(Nc3cc4c(cn3)ncc(=O)n4-c3ccc(N)cc3)cc2C)CC1
